Experimental data from publication PMC9786103, “Potent and Selective Inhibition of CYP1A2 Enzyme by Obtusifolin and Its Chemopreventive Effects” (Pharmaceutics, 2022).
Where two headings read alike, the source gives them in different places.

What was measured:
CYP2A6 = biological target: T1, CYP2A6 (Homo sapiens, UniProt P11509); assay: Coumarin 7-hydroxylation in human liver microsomes; assay type: biochemical; conditions: HLMs
T1 construct: Mixtures of pooled HLM, P450 substrates, and obtusifolin; tissue XenoTech XTreme 200; host or cells: pooled human liver microsomes
T1 sequence (P11509 1-494): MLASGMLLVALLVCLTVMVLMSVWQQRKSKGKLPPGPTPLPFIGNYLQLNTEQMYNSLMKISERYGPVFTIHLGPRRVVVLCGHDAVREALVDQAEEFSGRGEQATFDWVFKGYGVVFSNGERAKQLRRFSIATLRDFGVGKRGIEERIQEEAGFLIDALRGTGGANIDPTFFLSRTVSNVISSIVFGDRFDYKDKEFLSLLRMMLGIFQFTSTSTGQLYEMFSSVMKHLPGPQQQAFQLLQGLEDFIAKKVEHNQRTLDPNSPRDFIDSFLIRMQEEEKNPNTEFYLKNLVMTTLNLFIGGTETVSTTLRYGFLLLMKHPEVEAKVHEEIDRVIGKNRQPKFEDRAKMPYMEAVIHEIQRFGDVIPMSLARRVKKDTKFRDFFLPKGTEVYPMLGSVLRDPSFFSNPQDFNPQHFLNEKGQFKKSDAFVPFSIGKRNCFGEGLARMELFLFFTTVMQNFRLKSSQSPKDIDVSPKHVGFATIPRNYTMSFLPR
Method: (§2) The following P450 isoform-specific substrates were used: coumarin (CYP2A6); bupropion (CYP2B6); amodiaquine (CYP2C8); tolbutamide (CYP2C9); omeprazole (CYP2C19); dextromethorphan (CYP2D6); chlorzoxazone (CYP2E1); and midazolam (CYP3A). […] NGS was introduced to start the reaction, which was followed by an additional incubation (15 min). Following reaction termination, aliquots of the supernatants were analyzed with LC-MS/MS.
(§3) Reverse phase column (Kinetex XB-C18, 100 × 2.10 mm; Phenomenex, Torrance, CA, USA) and triple-quadrupole mass spectrometer (LCMS 8060, Shimadzu, Kyoto, Japan) with an ultra high-performance LC system (Nexera X2, Shimadzu) analyze all the metabolites. […] For each metabolite, quantitation was carried out in selected reaction monitoring (SRM) mode using the following precursor-to-product ion transition: m/z 152 > 110 for acetaminophen (CYP1A2), m/z 214 > 186 for resorufin (CYP1A1 and CYP1A2), m/z 163 > 107 for 7-hydroxycoumarin (CYP2A6), m/z 256 > 238 for 6-hydroxybupropion (CYP2B6), m/z 328 > 283 for N-desethylamodiaquine (CYP2C8), m/z 287 > 89 for 5-hydroxytolbutamide (CYP2C9), m/z 362 > 214 for 4-hydroxyomeprazole (CYP2C9), m/z 258 > 157 for dextrorphan (CYP2D6), m/z 184 > 120 for 6-hydroxychlorzoxazone (CYP2E1), m/z 342 > 203 for 1′-hydroxymidazolam (CYP3A), and m/z 295 > 100 for trimipramine (IS) [23, 24].

CYP2C9 = biological target: T2, CYP2C9 (Homo sapiens, UniProt P11712); assay: Tolbutamide 4-hydroxylation in human liver microsomes; assay type: biochemical; conditions: HLMs
T2 construct: Mixtures of pooled HLM, P450 substrates, and obtusifolin; tissue XenoTech XTreme 200; host or cells: pooled human liver microsomes
T2 sequence (P11712 whole entry): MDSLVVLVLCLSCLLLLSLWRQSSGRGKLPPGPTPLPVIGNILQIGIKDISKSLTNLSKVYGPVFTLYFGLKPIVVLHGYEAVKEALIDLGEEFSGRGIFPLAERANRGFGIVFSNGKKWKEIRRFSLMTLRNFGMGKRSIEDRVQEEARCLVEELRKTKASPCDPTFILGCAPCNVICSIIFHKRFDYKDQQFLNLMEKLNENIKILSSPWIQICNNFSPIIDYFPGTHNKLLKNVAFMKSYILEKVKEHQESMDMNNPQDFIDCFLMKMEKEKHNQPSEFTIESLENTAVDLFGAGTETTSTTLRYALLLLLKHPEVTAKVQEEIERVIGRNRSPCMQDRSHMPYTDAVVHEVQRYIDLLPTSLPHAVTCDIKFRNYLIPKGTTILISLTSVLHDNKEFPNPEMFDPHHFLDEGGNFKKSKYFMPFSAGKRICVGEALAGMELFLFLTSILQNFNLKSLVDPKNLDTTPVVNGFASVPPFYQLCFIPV
Method: as §2, §3

CYP2D6 = biological target: T3, CYP2D6 (Homo sapiens, UniProt P10635); assay: Dextromethorphan O-demethylation in human liver microsomes; assay type: biochemical; conditions: HLMs
T3 construct: Mixtures of pooled HLM, P450 substrates, and obtusifolin; tissue XenoTech XTreme 200; host or cells: pooled human liver microsomes
T3 sequence (P10635 whole entry): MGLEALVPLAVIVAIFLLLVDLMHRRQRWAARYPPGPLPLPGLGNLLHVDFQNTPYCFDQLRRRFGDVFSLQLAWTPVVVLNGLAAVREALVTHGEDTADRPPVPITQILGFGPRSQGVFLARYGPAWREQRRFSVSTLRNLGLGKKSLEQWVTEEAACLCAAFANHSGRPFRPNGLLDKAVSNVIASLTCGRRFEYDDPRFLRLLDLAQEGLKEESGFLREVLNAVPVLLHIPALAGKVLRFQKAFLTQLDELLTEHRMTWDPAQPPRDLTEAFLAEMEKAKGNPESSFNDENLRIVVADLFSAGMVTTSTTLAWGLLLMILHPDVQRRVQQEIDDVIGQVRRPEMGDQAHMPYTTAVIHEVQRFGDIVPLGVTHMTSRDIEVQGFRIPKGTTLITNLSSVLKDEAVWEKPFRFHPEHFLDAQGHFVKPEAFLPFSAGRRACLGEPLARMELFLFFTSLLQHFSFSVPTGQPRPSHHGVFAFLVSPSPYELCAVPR
Method: as §2, §3

CYP2E1 = biological target: T4, CYP2E1 (Homo sapiens, UniProt P05181); assay: biochemical; assay type: biochemical
T4 construct: Mixtures of pooled HLM, P450 substrates, and obtusifolin; tissue XenoTech XTreme 200; host or cells: pooled human liver microsomes
T4 sequence (P05181 whole entry): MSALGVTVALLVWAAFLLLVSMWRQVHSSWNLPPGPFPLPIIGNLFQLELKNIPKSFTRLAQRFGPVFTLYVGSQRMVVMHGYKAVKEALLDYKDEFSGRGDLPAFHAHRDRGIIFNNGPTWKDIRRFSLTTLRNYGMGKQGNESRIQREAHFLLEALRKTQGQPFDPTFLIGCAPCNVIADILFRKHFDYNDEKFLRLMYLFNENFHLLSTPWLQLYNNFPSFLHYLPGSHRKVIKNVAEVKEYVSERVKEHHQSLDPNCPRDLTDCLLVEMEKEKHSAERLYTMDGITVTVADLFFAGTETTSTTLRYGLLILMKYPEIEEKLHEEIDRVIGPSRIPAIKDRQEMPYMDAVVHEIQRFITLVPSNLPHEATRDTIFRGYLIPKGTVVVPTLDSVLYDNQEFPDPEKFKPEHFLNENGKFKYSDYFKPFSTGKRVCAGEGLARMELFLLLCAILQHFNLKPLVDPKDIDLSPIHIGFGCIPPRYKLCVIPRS
Method: as §2, §3

CYP3A = CYP3A (Homo sapiens, UniProt P08684); assay: Midazolam 1'-hydroxylation in human liver microsomes; assay type: biochemical; conditions: pooled human liver microsomes, probe midazolam, HLMs
Chain of CYP3A (P08684 2-503): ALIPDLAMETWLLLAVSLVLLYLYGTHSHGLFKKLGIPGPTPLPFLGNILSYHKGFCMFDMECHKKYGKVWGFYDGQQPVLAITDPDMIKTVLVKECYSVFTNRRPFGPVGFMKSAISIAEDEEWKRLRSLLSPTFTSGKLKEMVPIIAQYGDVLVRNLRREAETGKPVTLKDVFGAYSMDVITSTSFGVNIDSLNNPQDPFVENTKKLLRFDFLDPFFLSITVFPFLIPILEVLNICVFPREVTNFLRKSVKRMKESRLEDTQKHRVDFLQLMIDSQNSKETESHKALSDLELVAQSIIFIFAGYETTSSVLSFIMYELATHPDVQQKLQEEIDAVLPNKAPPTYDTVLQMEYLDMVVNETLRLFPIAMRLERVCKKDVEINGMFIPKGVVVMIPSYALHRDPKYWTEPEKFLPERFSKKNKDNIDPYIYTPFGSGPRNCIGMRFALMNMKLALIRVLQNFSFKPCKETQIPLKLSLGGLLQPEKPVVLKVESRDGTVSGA
Method: as §2, §3

rCYP1A1 = biological target: T5, rCYP1A1 (Homo sapiens, UniProt P04798); assay: Ethoxyresorufin O-deethylation (EROD) in recombinant CYP1A1; assay type: biochemical; conditions: rCYP1A1 10 pmol/mL, 7-ethoxyresorufin 2 µM, 20 min; read-out: IC50, CYP1A1-mediated EROD
T5 construct: purchased SPMED (Busan, Republic of Korea)
T5 sequence (P04798 1-512): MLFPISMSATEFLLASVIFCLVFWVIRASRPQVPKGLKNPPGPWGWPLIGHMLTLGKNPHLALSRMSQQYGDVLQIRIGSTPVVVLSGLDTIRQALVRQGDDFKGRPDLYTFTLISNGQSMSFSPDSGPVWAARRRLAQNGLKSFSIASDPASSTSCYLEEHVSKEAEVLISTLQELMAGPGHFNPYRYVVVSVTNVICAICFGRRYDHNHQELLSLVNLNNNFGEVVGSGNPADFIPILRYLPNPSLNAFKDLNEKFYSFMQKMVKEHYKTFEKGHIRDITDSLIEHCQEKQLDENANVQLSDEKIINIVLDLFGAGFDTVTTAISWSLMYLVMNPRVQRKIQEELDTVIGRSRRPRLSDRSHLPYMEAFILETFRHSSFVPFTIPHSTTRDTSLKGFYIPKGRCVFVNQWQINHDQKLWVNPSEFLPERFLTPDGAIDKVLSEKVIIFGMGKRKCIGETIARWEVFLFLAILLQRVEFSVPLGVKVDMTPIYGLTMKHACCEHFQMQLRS
Method: (§1) The inhibitory effects of obtusifolin on the CYP1A-mediated ethoxyresorufin O-deethylation (EROD) activity of rCYP1A1 and rCYP1A2 enzymes (10 pmol/mL) were investigated. […] The other conditions, except for the incubation time (20 min), were similar to those used in the P450 inhibition study, as described earlier.

rCYP1A2 [1] = biological target: T6, rCYP1A2 (Homo sapiens, UniProt P05177); assay: Ethoxyresorufin O-deethylation (EROD) in recombinant CYP1A2; assay type: biochemical; conditions: rCYP1A2 10 pmol/mL, 7-ethoxyresorufin 2 µM, 20 min; read-out: IC50, CYP1A2-mediated EROD
T6 construct: purchased SPMED (Busan, Republic of Korea)
T6 sequence (P05177 1-516): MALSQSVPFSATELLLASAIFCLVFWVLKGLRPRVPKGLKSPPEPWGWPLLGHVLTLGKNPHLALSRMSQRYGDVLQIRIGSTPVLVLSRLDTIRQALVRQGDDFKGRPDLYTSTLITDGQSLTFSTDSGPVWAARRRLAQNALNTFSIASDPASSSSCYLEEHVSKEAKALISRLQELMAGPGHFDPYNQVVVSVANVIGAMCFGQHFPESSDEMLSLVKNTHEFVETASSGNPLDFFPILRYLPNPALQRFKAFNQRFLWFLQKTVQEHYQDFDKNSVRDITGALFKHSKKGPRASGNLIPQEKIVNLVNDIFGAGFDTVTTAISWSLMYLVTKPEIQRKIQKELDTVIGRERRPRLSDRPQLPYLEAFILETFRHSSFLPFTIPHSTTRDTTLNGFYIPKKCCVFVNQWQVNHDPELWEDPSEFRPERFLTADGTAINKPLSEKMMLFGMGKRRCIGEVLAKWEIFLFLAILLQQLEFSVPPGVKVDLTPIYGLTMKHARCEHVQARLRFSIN
Method: as §1

rCYP1A2 [2] = biological target: T6, rCYP1A2; assay: Recombinant CYP1A2 inhibition with 9-cis-retinal as substrate; assay type: biochemical; conditions: substrate 9-cis-retinal
Description: Table 5 Inhibitory effects (IC50) of obtusifolin against recombinant CYP1A1 and CYP1A2. | column: IC50 (μM)

other P450s = assay: Inhibition of other P450s in human liver microsomes (summary); assay type: biochemical; conditions: HLMs, P450s other than CYP1A2; read-out: IC50 against other P450s
Description: The inhibitory potential of obtusifolin against the biotransformation of eight P450 probe substrates was examined using previously reported methods with slight changes [21, 22]. The following P450 isoform-specific substrates were used: coumarin (CYP2A6); bupropion (CYP2B6); amodiaquine (CYP2C8); tolbutamide (CYP2C9); omeprazole (CYP2C19); dextromethorphan (CYP2D6); chlorzoxazone (CYP2E1); and midazolam (CYP3A). Mixtures of pooled HLM, P450 substrates, and obtusifolin (0, 0.05, 0.2, 0.5, 2, 5, or 10 µM for CYP1A2; and 0, 0.5, 2, 5, 20, or 50 µM for the other P450 isoforms) were pre-incubated (5 min, 37 °C). NGS was introduced to start the reaction, which was followed by an additional incubation (15 min). Following reaction termination, aliquots of the supernatants were analyzed with LC-MS/MS.

[3] = read-out: Maximum concentration (Cmax) of obtusifolin in rat blood, cited from earlier work
CYP1A2 = biological target: T7, CYP1A2 (Homo sapiens, UniProt P05177); assay: Kinetic characterization of inhibition of CYP1A2-mediated POD in human liver microsomes; assay type: biochemical; parameters: tissue XenoTech XTreme 200; host or cells: pooled human liver microsomes; conditions: HLMs; for Type of inhibition of CYP1A2-mediated POD: Lineweaver-Burk and Dixon plots
T7 sequence (P05177 1-516): T6 sequence (P05177 1-516)
Description: The other conditions were similar to those used in the P450 inhibition study, as described earlier.
WinNonlin software (Pharsight, Mountain View, CA, USA) was used to calculate IC50 values. Based on Lineweaver–Burk double reciprocal plots, secondary plots of Lineweaver–Burk plots versus obtusifolin concentrations, and visual inspection of Dixon plots, the type of inhibition and apparent kinetic parameters for inhibitory activity (Ki) were estimated.

IC50 (CYP2A6): > 50 µM | IC50 (CYP2C9): 28.6 µM | IC50 (CYP2D6): > 50 µM | IC50 (CYP2E1): > 50 µM | inhibition at 15 min, 0.5 µM (CYP2E1; human, microsomes): 30.7% | IC50 at 15 min (CYP3A): > 50 µM | IC50 (rCYP1A1): 0.39 ± 0.06 µM | IC50 (rCYP1A2 [1]): 0.57 ± 0.11 µM | IC50 (rCYP1A2 [2]): 0.15 ± 0.03 µM | IC50 (other P450s): > 28.6 µM | Ki (CYP1A2; phenacetin 20, 50, 100 µM, read-out: Ki, CYP1A2-mediated phenacetin O-deethylation): 0.11 ± 0.02 µM | Type of inhibition of CYP1A2-mediated POD (CYP1A2): competitive | Type of inhibition of CYP1A2-mediated POD (CYP1A2; listed as obtusifolin): competitive inhibition
SMILES: COc1c(O)c(C)cc2c1C(=O)c1c(O)cccc1C2=O [Obtusifolin, obtusifolin]
Cmax ([3]; single oral Semen Cassiae extracts 1.25 g/kg (5.01 mg/g obtusifolin)): 860 nM | Cmax ([3]; single oral obtusifolin 1.3 mg/kg): 540 nM
